These are literature values, as cited in patent US8039024B2, “Device and composition for the delivery of a preservative-free balsamic cream” (APR Applied Pharma Research, S.A., priority 2008, dated 2011).

The conditions of the data set: sprayed directly onto the nasal mucosa of dogs and humans.

`CC12CCC(CC1=O)C2(C)C` (centres unmarked) [camphor, Camphor]: the decongestant action entry is on record as “no decongestant action”.
With `CC1CCC(C(C)C)C(O)C1` (centres unmarked) [menthol, Menthol], the decongestant action result is reported as “no decongestant action”.
